This note sets out measurements from patent publication US20080004271A1, “Inhibitors of TNFalpha, PDE4 and B-RAF, compositions thereof and methods of use therewith” (priority 2006, published 2008).

In experiment [1] the test system is pMEK1/2 in A375 cells. The experiment can be described thus: A375 pMEK1/2 Meso Scale Assay. The class given is cell-based. To be noted: Homo sapiens, A-375, 2 h; A375 pMEK1/2, about two hours incubation. As for the experimental part: On the afternoon of Day 1, cells are plated in a 96-well flat bottom cell culture plate at about 50,000 cells/well in a volume of 100 μl. On the morning of Day 2, serial dilutions of test compound(s) are added to the plate. The plate is incubated for about two hours at 37° C., […]. The plate is blocked about five minutes before the compound incubation step is completed by adding 150 μl/well of MSD (Meso Scale Discovery) blocking solution-A (prepared with 20 ml 1× Tris wash buffer (25 ml of 10× Tris buffer+225 ml deionized water) and 600 mg MSD blocker A) and incubating with vigorous shaking at room temperature for one hour. The plate is washed 4× with 1× Tris wash buffer.
Cells are harvested and lysates prepared by removing medium, washing 1× with ice-cold PBS (calcium and magnesium free), adding 50 μl/well Complete Tris buffer and incubating with shaking at 4° C. for one hour. Lysate samples (25 μl) are added to an MSD Multi-Spot plate and incubated with vigorous shaking at room temperature for two hours. The plate is washed 1× with Tris wash buffer.
25 μl/well of […] detection antibody (Anti-pMEK1/2 antibody; SULFO-TAG labeled, light sensitive) in 3 ml of cold antibody dilution buffer (1 ml blocking solution-A, 1.82 ml 1× Tris wash buffer, 150 μl 2% MSD blocker D-M and 30 μl 10% MSD blocker D-R) is added and the plate is incubated with vigorous shaking at room temperature in the dark for one hour. The plate is washed 1× with Tris wash buffer.
150 μl/well of 1× MSD Read buffer T (with surfactant) is added to the plate and the plate is read using a MSD Sector instrument.

The target in experiment [2] is T1, V600E mutant B-RAF (Homo sapiens, UniProt P15056, V600E).
T1 construct: purchased Upstate
T1 sequence (P15056 whole entry V600E): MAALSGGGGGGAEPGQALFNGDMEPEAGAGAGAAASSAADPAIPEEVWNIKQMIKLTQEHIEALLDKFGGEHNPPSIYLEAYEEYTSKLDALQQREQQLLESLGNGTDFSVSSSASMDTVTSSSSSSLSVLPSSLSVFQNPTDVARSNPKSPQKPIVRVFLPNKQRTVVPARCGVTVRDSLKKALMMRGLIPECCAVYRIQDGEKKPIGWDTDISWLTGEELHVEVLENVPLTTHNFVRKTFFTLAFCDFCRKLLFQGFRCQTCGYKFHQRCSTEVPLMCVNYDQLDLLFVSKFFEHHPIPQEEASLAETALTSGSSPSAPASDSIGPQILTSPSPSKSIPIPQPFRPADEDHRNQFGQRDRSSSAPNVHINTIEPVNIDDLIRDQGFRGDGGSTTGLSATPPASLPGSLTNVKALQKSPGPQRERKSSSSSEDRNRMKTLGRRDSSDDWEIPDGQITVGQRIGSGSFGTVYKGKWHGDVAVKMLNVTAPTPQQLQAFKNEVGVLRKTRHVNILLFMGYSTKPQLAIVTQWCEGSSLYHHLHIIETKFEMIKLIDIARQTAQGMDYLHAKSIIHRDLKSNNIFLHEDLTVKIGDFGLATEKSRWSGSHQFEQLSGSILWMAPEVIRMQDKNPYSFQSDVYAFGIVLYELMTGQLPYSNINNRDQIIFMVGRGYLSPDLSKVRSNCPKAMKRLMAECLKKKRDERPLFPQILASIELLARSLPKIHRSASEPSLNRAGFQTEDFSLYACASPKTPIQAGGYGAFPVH
The experiment in a line: V600E Mutant B-RAF 33P Assay. Type of experiment: biochemical. Here is the method: Substrate (HIS-MEK1 K97M) is prepared by Celgene Corp. as described above.
Test compound is diluted in 100% DMSO (600 μM). […] Substrate mixture is prepared as 7.5 μM HIS-MEK1 K97M in assay buffer. ATP mixture is prepared as 300 μM ATP, 75 mM MgCl2, 0.05 μCi/μl ^33P ATP in assay buffer.
In a 96 well assay plate (Falcon Polylpropylene well U-bottom), the following are added to each well: 2.5 μl of test compound solution (serial dilutions), 20 μl of substrate mixture and 17.5 μl of enzyme mixture. The plate is incubated for at least 15 minutes. 10 μl of ATP mixture is added and the plate is incubated at room temperature for about 60 minutes. 80 μl of 12.5% TCA is added to each well, and the plate is incubated for at least 20 minutes. The contents of the plate is transferred to a glass fiber filter plate (Millipore) using a Packard Harvester (washing 10× with 1×PBS). 50 μl of Scintillation-20 fluid is added to each well. The plate is read using a Packard TopCount.

Experiment [3] relates to A375 cells. The experiment in a line: Alamar Blue Viability Assay. The following applies: Homo sapiens, A-375, 72 h, 3 days. Type of experiment: cell-based. As for the experimental part:
A375 cells (ATCC # CRL-1619; Passage 4˜15; doubling time is roughly 18 hours) are used. Culture medium is DMEM (high glucose, with L-glutamine)+10% FBS+Pen/Strep. Cells are passed every three days at 1:20.
200 μl of medium only is added into all wells along the edges of a 96-well flat bottom plate and 180 μl of cell suspension (containing 1,000 cells) per well is added into the plate with a Low Evaporation Lid (Costar Cat # 3595). The cells are cultured overnight. Compounds and controls are diluted according to standard compound dilution protocol described below. From 30 mM stock solution, 10 mM, 3 mM, 1 mM, and 0.3 mM solutions in 100% DMSO are prepared using the following serial dilution protocol:
The 30, 10, 3, 1 and 0.3 mM solutions are diluted 1:50 (DMSO:medium) by adding 4 μl of each to 196 μl of culture medium. This yields 600 μM, 200 μM, 60 μM, 20 μM, and 6 μM secondary stock solutions. 4 μl of DMSO are added to 196 μl medium for the DMSO control as well. 20 μl of compound dilutions, including the DMSO control locations (Row G, Columns 2-10 are DMSO control wells), are added in triplicate to the cells in the 96-well plate using a repeat pipettor (see plate layout below). This yields final concentrations of 60 μM, 20 μM, 6 μM, 2 μM, and 0.6 μM containing 0.2% DMSO in each well. The plate is gently tapped to evenly distribute compound within the well. The plate is incubated at 5% CO2 at 37° C. for 3 days.
20 μl of Alamar Blue (Biosource #DAL-1100) is added to each well. The plate is incubated in 5% CO2 incubator for 4 hours. Fluorescence is measured with excitation wavelength at 530 nm and emission wavelength at 590 nm using a Victor 2 multilabel plate reader (Perkin Elmer). Data is saved with plate format as a Text file and entered into ActivityBase (Cell-based SAR; Prolif-Alamar; MTT 5 plates unfixed fit) to calculate the percent of DMSO values for each compound set of triplicate wells and IC50 curves are plotted.
Background: Resazurin is reduced to fluorescent resorufin, in cell work by metabolically active cells.

The structures appear in SMILES notation.

The term IC50 denotes the point on the concentration scale where inhibition reaches its midpoint. A high value points to weaker potency in that assay. In the case of `CC[C@@H](CO)Nc1nc(-c2ccc(Cl)c(Cl)c2)c2c(N)c(C(N)=O)sc2n1` [Example 207], the values for the IC50 in experiment [1], in experiment [2] and in experiment [3] were 10 to 20 µM, 0.1 to 10 µM and 10 to 20 µM, respectively.

In the case of `CC[C@H](CO)Nc1nc(-c2ccc(Cl)c(Cl)c2)c2c(N)c(C(N)=O)sc2n1` [Example 208], the IC50 in experiment [1] was in the range of 0.1 to 10 µM; in experiment [2], 0.1 to 10 µM; in experiment [3], 10 to 20 µM.

In the case of `NC(=O)c1sc2nc(NC3(CO)CC3)nc(-c3ccc(Cl)c(Cl)c3)c2c1N` [Example 210], the 50% inhibitory concentration (IC50) in experiment [1], in experiment [2] and in experiment [3] was 0.1 to 10 µM in each case.

As for `C[C@@H](O)[C@@H](C)Oc1nc(-c2ccc(Cl)c(Cl)c2)c2c(N)c(C(N)=O)sc2n1` [Example 214], the IC50 in experiment [1], in experiment [2] and in experiment [3] was 0.1 to 10 µM in each case.

In the case of `CCCNc1nc(-c2ccc(Cl)c(Cl)c2)c2c(N)c(C(N)=O)sc2n1` [Example 217], the results for the IC50 in experiment [1], in experiment [2] and in experiment [3] were 10 to 20 µM, 0.1 to 10 µM and 0.1 to 10 µM, respectively.

`CNCCNc1nc(-c2ccc(Cl)c(Cl)c2)c2c(N)c(C(N)=O)sc2n1` [Example 218]: the IC50 fell in the range of 30 to 60 µM in experiment [1], 0.1 to 10 µM in experiment [2] and 10 to 20 µM in experiment [3].

`COCCNc1nc(-c2ccc(Cl)c(Cl)c2)c2c(N)c(C(N)=O)sc2n1` [Example 219]: the values for the IC50 in experiment [1], in experiment [2] and in experiment [3] were greater than 60 µM, 0.1 to 10 µM and greater than 60 µM, respectively.

Take `NC(=O)c1sc2nc(NCC(O)CO)nc(-c3ccc(Cl)c(Cl)c3)c2c1N` (stereo not drawn) [Example 220]: the values for the IC50 in experiment [1], in experiment [2] and in experiment [3] were 10 to 20 µM, 0.1 to 10 µM and 20 to 30 µM, respectively.

For `COCCCNc1nc(-c2ccc(Cl)c(Cl)c2)c2c(N)c(C(N)=O)sc2n1` [Example 222], the IC50 in experiment [1] is 20 to 30 µM; in experiment [2], 0.1 to 10 µM; in experiment [3] it was 20 to 30 µM.

For `NC(=O)c1sc2nc(N[C@H]3CCNC3)nc(-c3ccc(Cl)c(Cl)c3)c2c1N` [Example 224], the IC50 in experiment [1] is 0.1 to 10 µM; in experiment [2], 0.1 to 10 µM; in experiment [3], 10 to 20 µM.

On to `NC(=O)c1sc2nc(N[C@@H]3CCNC3)nc(-c3ccc(Cl)c(Cl)c3)c2c1N` [Example 225], for which the IC50 in experiment [1], in experiment [2] and in experiment [3] was 0.1 to 10 µM throughout.

As to `NC(=O)c1sc2nc(NC3CCNCC3)nc(-c3ccc(Cl)c(Cl)c3)c2c1N` [Example 226], the half-maximal inhibitory concentration (IC50) in experiment [1], in experiment [2] and in experiment [3] was 0.1 to 10 µM in each case.

For `NC(=O)c1sc2nc(N[C@H]3CCOC3)nc(-c3ccc(Cl)c(Cl)c3)c2c1N` [Example 228], the IC50 in experiment [1] lay within 0.1 to 10 µM; in experiment [2] it was 0.1 to 10 µM; in experiment [3], 10 to 20 µM.

Regarding `COc1ccc(F)c(-c2nc(NC3CC3)nc3sc(C(N)=O)c(N)c23)c1` [Example 230], the IC50 in experiment [1] lay within 10 to 20 µM; in experiment [2], 0.1 to 10 µM; in experiment [3], 20 to 30 µM.

With `NC(=O)c1sc2nc(NC3CC3)nc(-c3cc(O)ccc3F)c2c1N` [Example 231], the IC50 in experiment [1], in experiment [2] and in experiment [3] was 0.1 to 10 µM in each case.

On to `NC(=O)c1sc2nc(NC3CC3)nc(-c3ccc(C(F)(F)F)c(O)c3)c2c1N` [Example 234], for which the IC50 in experiment [1] was in the range of 0.1 to 10 µM; in experiment [2] it was 0.1 to 10 µM; in experiment [3] it was 30 to 60 µM.

Turning to `Cc1c(O)cccc1-c1nc(NC(C)(C)CO)nc2sc(C(N)=O)c(N)c12` [Example 239], the IC50 in experiment [1], in experiment [2] and in experiment [3] was 0.1 to 10 µM throughout.

For `C[C@@H](CO)Nc1nc(-c2cccc(O)c2F)c2c(N)c(C(N)=O)sc2n1` [Example 240], the IC50 in experiment [1] was in the range of 0.1 to 10 µM; in experiment [2] it was 0.1 to 10 µM; in experiment [3], 20 to 30 µM.

In the case of `C[C@H](CO)Nc1nc(-c2cccc(O)c2F)c2c(N)c(C(N)=O)sc2n1` [Example 241], the IC50 was in the range of 0.1 to 10 µM in experiment [1], 0.1 to 10 µM in experiment [2] and 10 to 20 µM in experiment [3].

For the compound `CC[C@@H](CO)Nc1nc(-c2cccc(O)c2F)c2c(N)c(C(N)=O)sc2n1` [Example 242], the results for the 50% inhibitory concentration (IC50) in experiment [1], in experiment [2] and in experiment [3] were 0.1 to 10 µM, 0.1 to 10 µM and 10 to 20 µM, respectively.

In the case of `CC[C@H](CO)Nc1nc(-c2cccc(O)c2F)c2c(N)c(C(N)=O)sc2n1` [Example 243], the IC50 in experiment [1], in experiment [2] and in experiment [3] was 0.1 to 10 µM in each case.

Regarding `NC(=O)c1sc2nc(NC3CC3)nc(-c3cccc(NCCc4ccccc4)c3)c2c1N` [Example 247], the IC50 in experiment [1], in experiment [2] and in experiment [3] was 0.1 to 10 µM in each case.

Take `NC(=O)c1sc2nc(NC3CC3)nc(-c3cccc(NC(=O)Nc4ccc(Cl)c(C(F)(F)F)c4)c3)c2c1N` [Example 249]: the IC50 in experiment [1], in experiment [2] and in experiment [3] was 0.1 to 10 µM throughout.

With `NC(=O)c1sc2nc(NC3CC3)nc(-c3cccc(NC(=O)Nc4ccc(F)cc4)c3)c2c1N` [Example 252], the concentration for half-maximal inhibition (IC50) in experiment [1], in experiment [2] and in experiment [3] was 0.1 to 10 µM throughout.

In the case of `CC(C)(CN)CNc1nc(-c2ccc(Cl)c(Cl)c2)c2c(N)c(C(N)=O)sc2n1` [Example 253], the IC50 in experiment [1], in experiment [2] and in experiment [3] was 0.1 to 10 µM throughout.

Turning to `CC(C)(CN)Nc1nc(-c2ccc(Cl)c(Cl)c2)c2c(N)c(C(N)=O)sc2n1` [Example 256], the 50% inhibitory concentration (IC50) in experiment [1], in experiment [2] and in experiment [3] was 0.1 to 10 µM in each case.

As to `CC[C@H](CO)Nc1nc(-c2cccc(NC(=O)Nc3ccc(C(F)(F)F)cc3)c2)c2c(N)c(C(N)=O)sc2n1` [Example 258], the IC50 in experiment [1], in experiment [2] and in experiment [3] was 0.1 to 10 µM throughout.

Take `CC[C@@H](CO)Nc1nc(-c2cccc(NC(=O)Nc3ccc(C(F)(F)F)cc3)c2)c2c(N)c(C(N)=O)sc2n1` [Example 259]: the IC50 in experiment [1], in experiment [2] and in experiment [3] was 0.1 to 10 µM in each case.

Turning to `C[C@@H](CO)Nc1nc(-c2cccc(NC(=O)Nc3ccc(C(F)(F)F)cc3)c2)c2c(N)c(C(N)=O)sc2n1` [Example 261], the IC50 in experiment [1] was in the range of 0.1 to 10 µM; in experiment [2], 0.1 to 10 µM; in experiment [3], 10 to 20 µM.

As to `CC(C)(CO)Nc1nc(-c2cc(O)c(Cl)c(Cl)c2)c2c(N)c(C(N)=O)sc2n1` [Example 264], the half-inhibitory concentration (IC50) in experiment [1], in experiment [2] and in experiment [3] was 0.1 to 10 µM in each case.

In the case of `Cc1ccc(-c2nc(NC3CC3)nc3sc(C(N)=O)c(N)c23)cc1` [Example 265], the IC50 is 20 to 30 µM in experiment [1], 0.1 to 10 µM in experiment [2] and 20 to 30 µM in experiment [3].
